In patent publication US10023570B2 (Array BioPharma, Inc., priority 2015, dated 2018):
Where two headings read alike, the source gives them in different places.

Assays:
[1] = biological target: N-terminal GST tagged recombinant human RET cytoplasmic domain (aa 658-end), wild type RET kinase (Homo sapiens (Human), UniProt P07949); test: RET Enzyme Assay (HTRF KinEASE-TK), wild type RET; assay type: biochemical; conditions: wild type RET, 1 mM ATP
[2] = biological target: human KDR protein in HEK-293 cells (Homo sapiens (Human), UniProt P35968); test: KDR Cell Assay (phospho-KDR in HEK-293 cells expressing inducible KDR); assay type: cell-based; conditions: pKDR Cell HEK 10% FBS IC50, HEK-293 cells expressing inducible KDR, VEGF stimulated
Outline: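 HEK-293 cells with inducible human KDR were treated with compound for 1 h in DMEM (0.25% DMSO final), then lysed. Phospho-KDR was quantified by Meso Scale immunoassay, expressed as percent of control, and IC50 taken where a 4-parameter logistic fit crossed 50 POC.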

[3] = biological target: Kif5b-RET fusion protein in HEK-293 cells (Homo sapiens, UniProt P07949); test: cell-based; conditions: HEK-293 cells expressing Kif5b-RET, read-out: KIF5B-RET pTYR1062 Cell IC50
Kif5b-RET fusion protein in HEK-293 cells, sequence (P07949 29-1114 limits assumed): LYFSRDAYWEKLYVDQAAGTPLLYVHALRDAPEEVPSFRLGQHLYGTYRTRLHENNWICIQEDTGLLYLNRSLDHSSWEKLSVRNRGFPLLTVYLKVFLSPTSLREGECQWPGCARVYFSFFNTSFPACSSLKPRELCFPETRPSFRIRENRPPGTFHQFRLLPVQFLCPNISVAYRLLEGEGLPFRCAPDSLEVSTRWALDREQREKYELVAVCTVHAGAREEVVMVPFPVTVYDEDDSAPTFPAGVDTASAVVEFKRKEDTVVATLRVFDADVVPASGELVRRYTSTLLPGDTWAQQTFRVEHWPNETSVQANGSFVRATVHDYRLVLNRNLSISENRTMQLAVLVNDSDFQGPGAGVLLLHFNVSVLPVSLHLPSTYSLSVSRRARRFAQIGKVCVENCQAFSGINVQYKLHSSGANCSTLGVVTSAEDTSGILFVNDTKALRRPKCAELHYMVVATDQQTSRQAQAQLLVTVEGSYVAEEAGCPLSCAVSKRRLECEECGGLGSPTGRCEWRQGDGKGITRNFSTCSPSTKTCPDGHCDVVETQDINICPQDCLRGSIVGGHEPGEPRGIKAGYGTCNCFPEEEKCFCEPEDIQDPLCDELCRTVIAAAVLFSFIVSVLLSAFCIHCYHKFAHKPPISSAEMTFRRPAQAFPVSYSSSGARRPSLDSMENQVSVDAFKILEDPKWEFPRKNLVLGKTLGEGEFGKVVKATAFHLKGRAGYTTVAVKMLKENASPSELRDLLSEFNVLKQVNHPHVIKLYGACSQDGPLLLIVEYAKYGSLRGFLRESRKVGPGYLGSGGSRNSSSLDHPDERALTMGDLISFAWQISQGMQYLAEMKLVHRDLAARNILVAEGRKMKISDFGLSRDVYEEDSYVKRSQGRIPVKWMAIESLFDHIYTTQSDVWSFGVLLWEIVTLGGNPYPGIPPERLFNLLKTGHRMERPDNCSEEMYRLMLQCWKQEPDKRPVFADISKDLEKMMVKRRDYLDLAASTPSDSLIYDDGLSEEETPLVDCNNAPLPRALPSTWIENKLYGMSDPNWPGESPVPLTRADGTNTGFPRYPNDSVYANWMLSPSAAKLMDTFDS

human KDR protein in HEK-293 cells, sequence (P35968 20-1356): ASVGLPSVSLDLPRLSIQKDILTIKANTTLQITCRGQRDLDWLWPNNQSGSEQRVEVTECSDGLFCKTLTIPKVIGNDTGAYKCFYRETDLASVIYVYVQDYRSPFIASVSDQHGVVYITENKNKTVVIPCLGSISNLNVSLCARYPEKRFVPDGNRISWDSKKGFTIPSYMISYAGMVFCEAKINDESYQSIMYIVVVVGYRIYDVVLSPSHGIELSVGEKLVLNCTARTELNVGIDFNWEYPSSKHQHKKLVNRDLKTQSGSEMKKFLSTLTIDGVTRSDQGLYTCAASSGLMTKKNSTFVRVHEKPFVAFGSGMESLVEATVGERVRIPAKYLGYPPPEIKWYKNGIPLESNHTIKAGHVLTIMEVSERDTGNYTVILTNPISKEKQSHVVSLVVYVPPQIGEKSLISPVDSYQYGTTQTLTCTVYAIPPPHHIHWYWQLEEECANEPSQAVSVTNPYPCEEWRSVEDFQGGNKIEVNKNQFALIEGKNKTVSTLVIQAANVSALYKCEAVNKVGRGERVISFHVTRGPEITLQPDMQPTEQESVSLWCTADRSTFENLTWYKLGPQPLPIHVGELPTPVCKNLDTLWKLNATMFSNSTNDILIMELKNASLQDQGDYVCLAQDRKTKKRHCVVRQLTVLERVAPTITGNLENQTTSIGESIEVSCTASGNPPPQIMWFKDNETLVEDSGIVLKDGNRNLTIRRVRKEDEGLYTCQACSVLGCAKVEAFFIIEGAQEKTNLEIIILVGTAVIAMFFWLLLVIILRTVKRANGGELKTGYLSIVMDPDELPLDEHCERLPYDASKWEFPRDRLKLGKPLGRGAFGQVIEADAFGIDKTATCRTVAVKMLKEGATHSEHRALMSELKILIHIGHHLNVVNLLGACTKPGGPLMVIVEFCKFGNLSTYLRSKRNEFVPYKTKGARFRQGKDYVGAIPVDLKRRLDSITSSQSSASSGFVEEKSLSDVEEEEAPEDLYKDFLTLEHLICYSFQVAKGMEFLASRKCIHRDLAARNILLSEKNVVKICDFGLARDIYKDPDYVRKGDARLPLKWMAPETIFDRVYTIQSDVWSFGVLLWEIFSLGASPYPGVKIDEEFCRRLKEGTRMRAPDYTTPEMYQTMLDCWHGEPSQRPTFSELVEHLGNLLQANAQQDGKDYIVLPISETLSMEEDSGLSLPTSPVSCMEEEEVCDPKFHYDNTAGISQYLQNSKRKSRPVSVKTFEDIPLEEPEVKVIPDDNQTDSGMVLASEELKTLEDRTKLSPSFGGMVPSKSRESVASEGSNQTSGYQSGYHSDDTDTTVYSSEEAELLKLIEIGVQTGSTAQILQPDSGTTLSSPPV
N-terminal GST tagged recombinant human RET cytoplasmic domain (aa 658-end), wild type RET kinase, sequence (P07949 658-1114): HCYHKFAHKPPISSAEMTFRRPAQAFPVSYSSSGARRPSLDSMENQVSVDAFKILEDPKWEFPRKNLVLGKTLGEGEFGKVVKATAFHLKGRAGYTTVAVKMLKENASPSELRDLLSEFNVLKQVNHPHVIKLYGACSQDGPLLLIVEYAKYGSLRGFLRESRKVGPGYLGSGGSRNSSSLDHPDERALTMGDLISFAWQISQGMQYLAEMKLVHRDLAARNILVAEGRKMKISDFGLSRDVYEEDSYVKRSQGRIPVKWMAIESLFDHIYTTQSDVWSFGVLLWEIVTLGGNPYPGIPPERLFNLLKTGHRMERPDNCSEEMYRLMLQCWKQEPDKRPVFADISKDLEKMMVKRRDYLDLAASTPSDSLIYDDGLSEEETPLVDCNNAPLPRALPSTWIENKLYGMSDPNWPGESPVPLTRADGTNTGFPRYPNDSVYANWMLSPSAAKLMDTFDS

Row | IC50 [1] | IC50 ([2]; 10% FBS) | IC50 ([3]; phospho-RET(Tyr1062)) | IC50 [2] | IC50 [3] | Structure (SMILES)
1 | 4.5 nM | 223 nM | 6.3 nM | – | – | Cn1cc(-c2cc(-c3ccc(N4CCC(C(=O)NCCC(F)(F)F)CC4)nc3)c3c(C#N)cnn3c2)cn1 [Example 242, 1-(5-(3-cyano-6-(1-methyl-1H-pyrazol-4-yl)pyrazolo[1,5-a]pyridin-4-yl)pyridin-2-yl)-N-(3,3,3-trifluoropropyl)piperidine-4-carboxamide]
2 | 4 nM | 477 nM | 3.2 nM | – | – | COC(CNC(=O)C1CCN(c2ccc(-c3cc(-c4cnn(C)c4)cn4ncc(C#N)c34)cn2)CC1)C(C)C (stereo not drawn) [Example 236, 1-(5-(3-cyano-6-(1-methyl-1H-pyrazol-4-yl)pyrazolo[1,5-a]pyridin-4-yl)pyridin-2-yl)-N-(2-methoxy-3-methylbutyl)piperidine-4-carboxamide]
3 | 9.2 nM | 446 nM | 12.3 nM | – | – | COC(=O)C1(C)CCN(c2ccc(-c3cc(-c4cnn(C)c4)cn4ncc(C#N)c34)cn2)CC1 [Example 254, Methyl 1-(5-(3-cyano-6-(1-methyl-1H-pyrazol-4-yl)pyrazolo[1,5-a]pyridin-4-yl)pyridin-2-yl)-4-methylpiperidine-4-carboxylate]
4 | 22.1 nM | 921 nM | 124 nM | – | – | C[C@H](O)C(=O)N1CCN(c2ccc(-c3cc(-c4cnn(C)c4)cn4ncc(C#N)c34)cn2)CC1 [Example 30, (S)-4-(6-(4-(2-hydroxypropanoyl)piperazin-1-yl)pyridin-3-yl)-6-(1-methyl-1H-pyrazol-4-yl)pyrazolo[1,5-a]pyridine-3-carbonitrile]
5 | 12.8 nM | 1030 nM | 35.4 nM | – | – | COCCNC(=O)N1CCN(c2ccc(-c3cc(-c4cnn(C)c4)cn4ncc(C#N)c34)cn2)CC1 [Example 135, 4-(5-(3-cyano-6-(1-methyl-1H-pyrazol-4-yl)pyrazolo[1,5-a]pyridin-4-yl)pyridin-2-yl)-N-(2-methoxyethyl)piperazine-1-carboxamide]
6 | 62.1 nM | 1370 nM | 60.4 nM | – | – | CN(C)CC(=O)N1CCN(c2ccc(-c3cc(-c4cnn(C)c4)cn4ncc(Cl)c34)cn2)CC1 [Example 328, 1-(4-(5-(3-chloro-6-(1-methyl-1H-pyrazol-4-yl)pyrazolo[1,5-a]pyridin-4-yl)pyridin-2-yl)piperazin-1-yl)-2-(dimethylamino)ethanone]
7 | 13.6 nM | 192 nM | 11 nM | – | – | CC(C)C(O)CN1CCN(c2ccc(-c3cc(-c4cnn(C)c4)cn4ncc(C#N)c34)cn2)CC1 (stereo not drawn) [Example 160, 4-(6-(4-(2-hydroxy-3-methylbutyl)piperazin-1-yl)pyridin-3-yl)-6-(1-methyl-1H-pyrazol-4-yl)pyrazolo[1,5-a]pyridine-3-carbonitrile]
8 | 34 nM | – | – | 830 nM | 39.7 nM | CCC1(C(=O)NC(C)C)CCN(c2ccc(-c3cc(-c4cnn(C)c4C)cn4ncc(C#N)c34)cn2)CC1 [Example 597, 1-(5-(3-cyano-6-(1,5-dimethyl-1H-pyrazol-4-yl)pyrazolo[1,5-a]pyridin-4-yl)pyridin-2-yl)-4-ethyl-N-isopropylpiperidine-4-carboxamide]
9 | 11.7 nM | 347 nM | 10.8 nM | – | – | CC(C)NC(=O)N1CCN(c2ccc(-c3cc(-c4cnn(C)c4)cn4ncc(C#N)c34)cn2)CC1 [Example 126, 4-(5-(3-cyano-6-(1-methyl-1H-pyrazol-4-yl)pyrazolo[1,5-a]pyridin-4-yl)pyridin-2-yl)-N-isopropylpiperazine-1-carboxamide]
10 | 11.6 nM | 555 nM | 11.1 nM | – | – | Cn1cc(-c2cc(-c3ccc(N4CCN(C(=O)NC(C)(C)C)CC4)nc3)c3c(C#N)cnn3c2)cn1 [Example 128, N-(tert-butyl)-4-(5-(3-cyano-6-(1-methyl-1H-pyrazol-4-yl)pyrazolo[1,5-a]pyridin-4-yl)pyridin-2-yl)piperazine-1-carboxamide]
